Tests used:
[1] = tested on: A549-ACE2 infected with SARS-CoV-2; assay: morphology score (similarity to uninfected cells); higher = more like uninfected cells; conditions: 24 h
Calu-3 [2] = assay: drug sensitivity score (DSS) for viability; higher = more toxic; extreme values may be limits of the assay; conditions: 72 h
U2OS [3] = assay: as above; conditions: 72 h
HepG2 [4] = assay: as above; conditions: 72 h
Vero E6 [5] = assay: as above; conditions: 72 h
Caco-2 [6] = assay: as above; conditions: 72 h
[7] = tested on: A549-ACE2 infected with SARS-CoV-2; assay: SARS-CoV-2 infection rate relative to DMSO; higher = more infection; conditions: 24 h
Calu-3 [8] = assay: cell viability relative to DMSO; higher = less toxic; conditions: 72 h
U2OS [9] = assay: as above; conditions: 72 h
HepG2 [10] = assay: as above; conditions: 72 h
Vero E6 [11] = assay: as above; conditions: 72 h
Caco-2 [12] = assay: as above; conditions: 72 h
A549-ACE2 [13] = assay: drug-induced phospholipidosis relative to tamoxifen; higher = more phospholipidosis
Calu-3 [14] = assay: relative viability EC50 (midpoint between 100% and the lowest measured viability); higher = less toxic; conditions: 72 h
HepG2 [15] = assay: as above; conditions: 72 h
Vero E6 [16] = assay: as above; conditions: 72 h
[17] = tested on: A549-ACE2 infected with SARS-CoV-2; assay: cell count relative to DMSO; higher = less toxic; conditions: 24 h
Caco-2 [18] = assay: relative viability EC50 (midpoint between 100% and the lowest measured viability); higher = less toxic; conditions: 72 h
A549-ACE2 [19] = assay: phospholipidosis EC50; higher = less potent phospholipidosis inducer
U2OS [20] = assay: relative viability EC50 (midpoint between 100% and the lowest measured viability); higher = less toxic; conditions: 72 h

Cc1csc(-c2nnc(Nc3ccc(Oc4ncccc4-c4ccnc(N)n4)cc3)c3ccccc23)c1 [AMG900]
Conditions | SARS-CoV-2 infection rate, [7] [%] | cell count, [17] [%] | cell viability, Caco-2 [12] [%] | cell viability, Calu-3 [8] [%] | cell viability, HepG2 [10] [%] | cell viability, U2OS [9] [%] | cell viability, Vero E6 [11] [%] | morphology score, [1]
1 nM | – | – | 94.6 | 104 | 101 | 93.9 | 100 | –
10 nM | – | – | 90.5 | 90.7 | 73.4 | 93.8 | 82.2 | –
0.1 µM | 97 | 77 | – | – | – | – | – | 0.14
100 nM | – | – | 96.1 | 92 | 76.6 | 85.5 | 80.4 | –
0.3 µM | 93 | 73 | – | – | – | – | – | 0.2
1 µM | 105 | 74 | – | – | – | – | – | -0.05
1000 nM | – | – | 77.3 | 77.8 | 53.6 | 82.3 | 81.7 | –
3 µM | 104 | 75 | – | – | – | – | – | -0.08
10000 nM | – | – | 65.5 | 81.4 | 2.2 | 68.2 | 75.8 | –

Conditions | drug sensitivity score | relative viability EC50 [µM]
Caco-2 [6] | 4.2 | –
Calu-3 [2] | 3.3 | –
Calu-3 [14] | – | > 10
HepG2 [4] | 13.9 | –
HepG2 [15] | – | 0.54
U2OS [3] | 4.3 | –
Vero E6 [5] | 8.5 | –
Vero E6 [16] | – | > 10

drug-induced phospholipidosis [%], A549-ACE2 [13]
Conditions | 0.3 µM | 0.833333 µM | 3.33333 µM | 6.66667 µM | 10 µM | 30 µM
24 h | 13.3 | 10.1 | 22.8 | 35.6 | 44.4 | 33.3
48 h | – | – | 27.1 | – | 34.6 | 7.09

Cc1nnc2n1-c1sc(CCC(=O)N3CCOCC3)cc1C(c1ccccc1Cl)=NC2 [apafant]
Conditions | SARS-CoV-2 infection rate, [7] [%] | cell count, [17] [%] | cell viability, Caco-2 [12] [%] | cell viability, Calu-3 [8] [%] | cell viability, HepG2 [10] [%] | cell viability, Vero E6 [11] [%] | morphology score, [1]
1 nM | – | – | 108 | 94.3 | 105 | 111 | –
10 nM | – | – | 107 | 94.7 | 93.7 | 105 | –
100 nM | – | – | 101 | 95.3 | 108 | 104 | –
0.3 µM | 101 | 101 | – | – | – | – | -0.03
1000 nM | – | – | 104 | 105 | 92.3 | 105 | –
3 µM | 83 | 102 | – | – | – | – | 0.43
10 µM | 102 | 100 | – | – | – | – | -0.18
10000 nM | – | – | 94 | 87.1 | 102 | 99.7 | –
30 µM | 93 | 103 | – | – | – | – | 0.24

Conditions | drug sensitivity score | relative viability EC50 [µM]
Caco-2 [6] | 0 | –
Caco-2 [18] | – | > 10
Calu-3 [2] | 0 | –
Calu-3 [14] | – | > 10
HepG2 [4] | 0 | –
HepG2 [15] | – | > 10
Vero E6 [5] | 0 | –
Vero E6 [16] | – | > 10

drug-induced phospholipidosis [%], A549-ACE2 [13]
Conditions | 0.3 µM | 0.833333 µM | 3.33333 µM | 6.66667 µM | 10 µM | 30 µM
24 h | -0.44 | -1.14 | -1.04 | -0.5 | -1.44 | -0.48
48 h | 0.52 | -1.18 | 0.04 | 0.92 | -0.18 | 0.6
72 h | 2.35 | -0.663 | 0.399 | -0.364 | 0.448 | 3.95

Cn1c(NC[C@@H](N)Cc2ccccc2)nc(-c2ccncc2)c(-c2ccc3ccccc3c2)c1=O [AMG-548]
Conditions | SARS-CoV-2 infection rate [%] | cell count [%] | cell viability [%] | morphology score | phospholipidosis EC50 [µM]
A549-ACE2 [19], 24 h | – | – | – | – | 8.48
A549-ACE2 [19], 48 h | – | – | – | – | 9.02
A549-ACE2 [19], 72 h | – | – | – | – | 9.93
Caco-2 [12], 1 nM | – | – | 96.8 | – | –
Caco-2 [12], 10 nM | – | – | 87.9 | – | –
Caco-2 [12], 100 nM | – | – | 102 | – | –
Caco-2 [12], 1000 nM | – | – | 89.5 | – | –
Caco-2 [12], 10000 nM | – | – | 69.9 | – | –
HepG2 [10], 1 nM | – | – | 106 | – | –
HepG2 [10], 10 nM | – | – | 108 | – | –
HepG2 [10], 100 nM | – | – | 101 | – | –
HepG2 [10], 1000 nM | – | – | 104 | – | –
HepG2 [10], 10000 nM | – | – | 72.4 | – | –
U2OS [9], 1 nM | – | – | 101 | – | –
U2OS [9], 10 nM | – | – | 94.2 | – | –
U2OS [9], 100 nM | – | – | 93.1 | – | –
U2OS [9], 1000 nM | – | – | 85.3 | – | –
U2OS [9], 10000 nM | – | – | 76.3 | – | –
Vero E6 [11], 1 nM | – | – | 106 | – | –
Vero E6 [11], 10 nM | – | – | 104 | – | –
Vero E6 [11], 100 nM | – | – | 99.2 | – | –
Vero E6 [11], 1000 nM | – | – | 89 | – | –
Vero E6 [11], 10000 nM | – | – | 97.2 | – | –
[1], 0.3 µM | – | – | – | -0.14 | –
[1], 3 µM | – | – | – | 0.22 | –
[1], 10 µM | – | – | – | 0.82 | –
[1], 30 µM | – | – | – | 0.53 | –
[7], 0.3 µM | 99 | – | – | – | –
[7], 3 µM | 71 | – | – | – | –
[7], 10 µM | 27 | – | – | – | –
[7], 30 µM | 11 | – | – | – | –
[17], 0.3 µM | – | 93 | – | – | –
[17], 3 µM | – | 110 | – | – | –
[17], 10 µM | – | 123 | – | – | –
[17], 30 µM | – | 106 | – | – | –

Conditions | drug sensitivity score | relative viability EC50 [µM]
Caco-2 [6] | 2.8 | –
HepG2 [4] | 0.9 | –
U2OS [3] | 2.3 | –
U2OS [20] | – | > 10
Vero E6 [5] | 0.3 | –
Vero E6 [16] | – | > 10

drug-induced phospholipidosis [%], A549-ACE2 [13]
Conditions | 0.3 µM | 0.833333 µM | 3.33333 µM | 6.66667 µM | 10 µM | 30 µM
24 h | -3.67 | -2.85 | 6.77 | 44.3 | 80.5 | 129
48 h | -2.54 | -2.01 | 5.31 | 39.9 | 73.3 | 125
72 h | -1.85 | -0.623 | 7.44 | 37.6 | 80.8 | 151

N#Cc1ccc(N2N=C3c4ccc(C(=O)O)cc4CC[C@@H]3[C@@H]2C2CCCC2)cc1Cl
Conditions | SARS-CoV-2 infection rate, [7] [%] | cell count, [17] [%] | cell viability, Caco-2 [12] [%] | cell viability, Calu-3 [8] [%] | cell viability, HepG2 [10] [%] | cell viability, U2OS [9] [%] | cell viability, Vero E6 [11] [%] | morphology score, [1]
1 nM | – | – | 92 | 101 | 93.1 | 97.1 | 96 | –
10 nM | – | – | 98.1 | 97.6 | 96.3 | 96.4 | 106 | –
100 nM | – | – | 105 | 95 | 114 | 99.4 | 90 | –
0.3 µM | 101 | 100 | – | – | – | – | – | -0.02
1000 nM | – | – | 95.1 | 92.5 | 95.5 | 97.7 | 98.5 | –
3 µM | 99 | 107 | – | – | – | – | – | 0.24
10 µM | 98 | 96 | – | – | – | – | – | -0.01
10000 nM | – | – | 101 | 106 | 103 | 99.6 | 117 | –
30 µM | 75 | 97 | – | – | – | – | – | 0.57

Conditions | drug sensitivity score | relative viability EC50 [µM]
Caco-2 [6] | 0 | –
Caco-2 [18] | – | > 10
Calu-3 [2] | 0 | –
Calu-3 [14] | – | > 10
HepG2 [4] | 0 | –
HepG2 [15] | – | > 10
U2OS [3] | 0 | –
U2OS [20] | – | > 10
Vero E6 [5] | 0 | –
Vero E6 [16] | – | > 10
